Results on five molecules are retold here after ChEMBL document CHEMBL1201862, “PubChem BioAssay data set” (2004).

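How tested: cells in 96-well plates exposed to compound for 48 hours at five concentrations. GI50: concentration for 50% inhibition of growth.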 Activity calls are given as the source filed them. Cut-off read from the data, not from the text of the source: active = GI50 up to about 1.1 µM and inactive = higher.

What all share (assay): DTP human tumour cell line panel, 48 h
The test system of assay [1] is HL-60.
Assay [2] deals with NCI-H226.
In assay [3] the test system is MCF7.
Assay [4] relates to HCT-15.
The subject of assay [5] is SK-MEL-2.
The subject of assay [6] is SN12C.
In assay [7] the test system is SF-295.
Assay [8] deals with HOP-92.
Assay [9] relates to IGROV-1.
The subject of assay [10] is HCC 2998.
Assay [11] concerns TK-10.
Assay [12] deals with HOP-62.
Assay [13] concerns PC-3.
For assay [14], the system named is K562.
In assay [15] the test system is UACC-62.
Assay [16] concerns SK-MEL-28.
For assay [17], the system named is SNB-19.

Turning to `OCc1c2c(cc3c1CC1(C3)Cc3cc4c(c(CO)c3C1)CCC4)CCC2`, the GI50 was 5.73 µM (inactive) in [1]; 11.6 µM (inactive) in [2]; 23.5 µM (inactive) in assay [3]; 18 µM in [4]; 19.8 µM (inactive) in [5]; 16.9 µM (inactive) in [6]. Moreover, the GI50 in [7] was 12.4 µM (inactive); in assay [8], 18.5 µM (inactive); in [9], 15.5 µM (inactive); in [10], 17.5 µM (inactive); in assay [11], 19.6 µM (inactive); in assay [12] it was 15.6 µM (inactive). Moreover, the GI50 in assay [13] is 15.3 µM (inactive); in assay [14], 7.35 µM (inactive); in assay [15] it was 16.7 µM (inactive).

As for `Cc1cc2c(cc1C)C(=O)C1(C2)Cc2c(ccc(C)c2C)C1=O` (centres undefined), the GI50 is > 100 µM (inactive) in [1]; > 100 µM (inactive) in assay [16]; > 100 µM (inactive) in assay [2]; > 100 µM (inactive) in assay [17]; > 100 µM (inactive) in assay [3]; greater than 100 µM in assay [4]. The GI50 is > 100 µM (inactive) in assay [5]; > 100 µM (inactive) in assay [6]; > 100 µM (inactive) in [7]; 79.4 µM (inactive) in assay [8]; > 100 µM (inactive) in assay [9]; > 100 µM (inactive) in assay [10]. For the same molecule, the GI50 in assay [11], in [13], in [14] and in assay [15] was > 100 µM (inactive) throughout.

For the molecule `N#Cc1ccc2oc3ccc(C#N)cc3c(=O)c2c1`, the GI50 was 17.9 µM (inactive) in [1]; 18.5 µM (inactive) in assay [16]; 35.9 µM (inactive) in assay [2]; 27.9 µM (inactive) in assay [17]; 24.5 µM (inactive) in assay [3]; greater than 100 µM in assay [4]. For the same molecule, the GI50 was 19.6 µM (inactive) in assay [5]; > 100 µM (inactive) in assay [6]; 22.9 µM (inactive) in [7]; 41 µM (inactive) in assay [8]; 32 µM (inactive) in assay [9]; 58.2 µM (inactive) in assay [10]. For the same molecule, the GI50 in [11] is 24.3 µM (inactive); in [13], 24.7 µM (inactive); in assay [14] it was 31.3 µM (inactive); in assay [15], 19 µM (inactive).

Consider `NNc1nnc(CCCCCCCCc2nnc(NN)n2N)n1N`, for which the GI50 was 24.4 µM (inactive) in assay [1]; > 100 µM (inactive) in [16]; > 100 µM (inactive) in assay [2]; 64.3 µM (inactive) in assay [17]; > 100 µM (inactive) in assay [3]; greater than 100 µM in [4]. In addition, the GI50 is 84.5 µM (inactive) in assay [5]; > 100 µM (inactive) in assay [6]; 76.9 µM (inactive) in assay [7]; 28 µM (inactive) in [8]; 55.3 µM (inactive) in assay [9]; 33.3 µM (inactive) in assay [10]. Moreover, the GI50 in assay [11] was > 100 µM (inactive); in assay [12], 37.2 µM (inactive); in [13], > 100 µM (inactive); in [14], 14 µM (inactive).

Regarding `C=C1CC[C@H]2C(C)=CC[C@H]3C(=C)C(=O)O[C@@H]3[C@@H]12` [EREMANTHIN], the GI50 in assay [1] was > 100 µM (inactive); in assay [16] it was > 100 µM (inactive); in assay [2], > 100 µM (inactive); in assay [17] it was > 100 µM (inactive); in [3], > 100 µM (inactive); in [4], greater than 100 µM. Besides, the GI50 in [5], in [6], in assay [7], in assay [8], in assay [9] and in [10] was > 100 µM (inactive) each time. For the same molecule, the GI50 in assay [11], in assay [13], in [14] and in assay [15] was > 100 µM (inactive) throughout.
